In ChEMBL document CHEMBL1159185, “Metabolism and structure activity data based drug design: discovery of () SCH 53079 an analog of the potent cholesterol absorption inhibitor () SCH 48461” (1996):

Assays:
Cricetinae gen. sp. [1] = assay: Compound was evaluated for the reduction of liver cholesterol ester levels in the cholesterol-fed Hamster model at 50 mg/kg; format: functional
Monkey = assay: Compound was evaluated for the reduction of liver cholesterol ester levels in the cholesterol-fed rhesus monkey model.; format: functional, Cercopithecidae
Cricetinae gen. sp. [2] = assay: Compound was evaluated for the reduction of liver cholesterol ester levels in the cholesterol-fed Hamster model at 50 mpk; format: functional
Cricetinae gen. sp. [3] = assay: Compound was evaluated for the reduction of liver cholesterol ester levels in the cholesterol-fed Hamster model.; format: functional
Rattus norvegicus [4] = species on record: Rattus norvegicus; assay: Compound was evaluated for the plasma concentration in female rats at 24 hr after post dose; format: functional, organism-based
Rattus norvegicus [5] = species on record: Rattus norvegicus; assay: Compound was evaluated for the plasma concentration in female rats at 2 hr after post dose; format: functional, organism-based
Rattus norvegicus [6] = species on record: Rattus norvegicus; assay: Compound was evaluated for the plasma concentration in female rats at 1 hr after post dose; format: functional, organism-based
Rattus norvegicus [7] = species on record: Rattus norvegicus; assay: Compound was evaluated for the plasma concentration in female rats at 4 hr after post dose; format: functional, organism-based
Rattus norvegicus [8] = species on record: Rattus norvegicus; assay: Compound was evaluated for the plasma concentration in female rats at 8 hr after post dose; format: functional, organism-based

COc1ccc([C@@H]2[C@@H](CCOc3ccc4c(c3)CCC4)C(=O)N2c2ccccc2)cc1 (racemic)
Reduction (Cricetinae gen. sp. [1]): -46%

COc1ccc([C@@H]2[C@@H](CCCc3ccccc3)C(=O)N2c2ccc(OC)cc2)cc1 [SCH-48461]
ED100 (Monkey): 1 MPK

COc1ccc(OCC[C@H]2C(=O)N(c3ccccc3)[C@@H]2c2ccc(OC)cc2)cc1
Reduction (Cricetinae gen. sp. [1]): -82%

COc1ccc([C@@H]2[C@@H](CCOc3ccc(F)cc3)C(=O)N2c2ccc(OC)cc2)cc1 (racemic)
Reduction (Cricetinae gen. sp. [1]): -93%

COc1ccc([C@@H]2[C@@H](CCOc3ccc(F)cc3)C(=O)N2c2ccccc2)cc1 (stereo in doubt; (+)4)
Reduction (Cricetinae gen. sp. [1]; 50 mg/kg): -28%

COc1ccc([C@@H]2[C@@H](CCCc3ccccc3)C(=O)N2c2ccc(OC)cc2)cc1 (racemic) [SCH-48461]
Reduction (Cricetinae gen. sp. [2]): -78%

COc1ccc([C@@H]2[C@@H](CCOc3ccc(I)cc3)C(=O)N2c2ccccc2)cc1 (racemic)
Reduction (Cricetinae gen. sp. [1]): -47%

COc1ccc([C@@H]2[C@@H](CCOc3ccc(F)cc3)C(=O)N2c2ccccc2)cc1 (stereo in doubt; (-)4) [listing 1 of 2 here]
Reduction (Cricetinae gen. sp. [1]; 50 mg/kg): -93%
ED100 (Monkey): 0.3 MPK
ED50 (Cricetinae gen. sp. [3]): 2.2 mg/kg

COc1ccc([C@@H]2[C@@H](CCOc3ccc(F)cc3F)C(=O)N2c2ccccc2)cc1
Reduction (Cricetinae gen. sp. [1]): -88%

COc1ccc([C@@H]2[C@@H](CCOc3ccc([N+](=O)[O-])cc3)C(=O)N2c2ccccc2)cc1
Reduction (Cricetinae gen. sp. [1]): -31%

COc1ccc([C@@H]2[C@@H](CCOc3ccc(F)cc3)C(=O)N2c2ccccc2)cc1 (stereo in doubt; (-)4) [listing 2 of 2 here]
Plasma level (Rattus norvegicus [4]): < 30 ng/mL
Plasma level (Rattus norvegicus [5]): 41.1 ng/mL
Plasma level (Rattus norvegicus [6]): > 30 ng/mL
Plasma level (Rattus norvegicus [7]): < 30 ng/mL
Plasma level (Rattus norvegicus [8]): 239 ng/mL

COc1ccc([C@@H]2[C@@H](CCOc3ccccc3)C(=O)N2c2ccc(OC)cc2)cc1
Reduction (Cricetinae gen. sp. [1]): -39%

COc1ccc([C@@H]2[C@@H](CCOc3ccc(F)cc3)C(=O)N2c2ccccc2)cc1 (stereo in doubt; (+/-)4)
Reduction (Cricetinae gen. sp. [1]; 50 mg/kg): -95%
